According to patent US9988644B2, “Compounds for improved viral transduction” (bluebird bio, Inc., priority 2011, dated 2018):

Assays:
CD34+ cells [1] = assay: 7-Day liquid culture, FACS for GFP after transduction with GFP+ lentivirus in presence of dmPGE2; format: cell-based, human; conditions: for % Positive (GFP): ~1 week in culture
Procedure: One vial of CD34+ cells (AllCells) were thawed by incubating at 37° C. for 1-2 minutes and contents were transferred to 10 mL Stem Cell Growth Media (hereafter referred to as SCGM) in a 15-mL conical tube. Cells were spun for 5 minutes at 1500 RPM in a standard tabletop centrifuge, resuspended in 10 mL SCGM and counted on a hemacytometer. A volume correlating with an appropriate number of cells was transferred to a fresh 15-mL conical tube, and again spun for 5 minutes at 1500 RPM. Cells were resuspended to the desired cell concentration in SCGM+1× cytokines (100 ng/mL SCF, 100 ng/mL TPO, 100 ng/mL FltL, and 30 ng/mL IL-3), and plated on a sterile non-adherent surface at 37° C. in a standard humidified tissue culture incubator (5% CO2).
Pre-stimulated cells (Example 1) were counted after 18-24 hours of culture. The cells were collected and spun for 5 minutes at 1500 RPM. 1.2×10^6 pre-stimulated CD34^+ cells were resuspended in 60 uL 10× cytokines (1000 ng/mL SCF, 1000 ng/mL TPO, 1000 ng/mL FltL, and 300 ng/mL IL-3), 7.8 uL protamine sulfate, 111 uL viral supernatant, and 361.2 uL SCGM. 90 uL cell/virus suspension (about 200,000 cells) was added to each well of a standard non-adherent 96-well plate. dmPGE2 was added during this viral transduction step at a final concentration of 100 uM, 50 uM, 25 uM, 12.5 uM, 1 uM, or 0 uM.
Aliquots of 10 mM dmPGE2 in DMSO were prepared from 1 mg previously processed dmPGE2 (Cayman Chemicals). Briefly, air was pipetted into the vial of dmPGE2 until methyl acetate was evaporated. 263 uL DMSO was added to the PGE2 remaining in the vial, and aliquots of 25 uL were added to 1.5 mL Eppendorf tubes and stored at −80° C. 10× working stock solutions were prepared by serial dilution of dmPGE2 in SCGM, and were then added to cells at appropriate working concentrations, according to Table 2. Cells were then incubated at 37° C. in a standard humidified tissue culture incubator (5% CO2).
After 24 hours of culture with virus and dmPGE2, cells were washed prior to subsequent functional validation assays. Washing was performed by transferring cells to a 96-well U-bottom plate and spinning for 5 minutes at 1500 RPM in a standard tabletop centrifuge. Media was aspirated and cells were resuspended in 200 uL SCGM. Cells were spun again for 5 minutes at 1500 RPM and media was aspirated. Cells were again resuspended in 200 uL SCGM then spun for 5 minutes at 1500 RPM, and again the media was aspirated. Particular functional validation assays are described below.
Washed cells were resuspended in 200 uL SCGM+1× cytokines (as described in Example 1) and transferred to a standard 12-well non-adherent tissue culture plate containing an additional 800 uL SCGM+1× cytokines Cells were maintained for an additional 6 days in a standard humidified tissue culture incubator (5% CO2) and then subjected Vector Copy Number analysis (Example 5) and FACS analysis. For FACS analysis, cells were assayed for the presence of a virally-encoded transgene, green fluorescent protein (GFP). The frequency of the virally-labeled cells within the pool of cultured cells was quantified as the frequency of GFP+ cells within the population. The mean fluorescence intensity of labeled cells was quantified.
Tables 3A-C indicate the dose-response of dmPGE2 in promoting viral transduction of CD34+ cells for three separate experiments. CD34+ cells were thawed and pre-stimulated with SCF, TPO, FltL, and IL3, then transduced (A) with GFP+ lentivirus at a multiplicity of infection of 25, (B) with GFP+ lentivirus at a multiplicity of infection of 5, or (C) transduced with an ALD (ABCD1)-expressing lentivirus at a multiplicity of infection of 25. Cells were exposed to dmPGE2 during the viral transduction step (24-48 hours of culture). Cells were then washed and analyzed by flow cytometry and PCR after approximately 1 week in culture. […]

CD34+ cells [2] = assay: Time-course and dose-response of dmPGE2 in promoting viral transduction (GFP+ lentivirus, flow cytometry); format: cell-based, human; conditions: GFP+ lentivirus MOI 25; for percentage of cells positive for GFP, Pre-Stim w/PGE2 Minus 2 Hr: 22-24 hours of culture; for percentage of cells positive for GFP, Pre-Stim w/PGE2 Minus 1 Hr: 23-24 hours of culture; for percentage of cells positive for GFP, Virus and PGE2 Plus 1 Hr: 24-25 hours of culture; for percentage of cells positive for GFP, Virus and PGE2 Plus 2 Hr: 24-26 hours of culture; for percentage of cells positive for GFP, Virus and PGE2 Plus 4 Hr: 24-28 hours of culture; for percentage of cells positive for GFP, Virus and PGE2 24 Hr: 24-48 hours of culture
Procedure: MCD-34+ cells were thawed and pre-stimulated with SCF, TPO, FltL and IL3, then transduced with GFP+ lentivirus at a multiplicity of infection of 25. Cells were exposed to dmPGE2 during the viral transduction step (24-25 hours of culture; 24-26 hours of culture; 24-28 hours of culture; or 24-48 hours of culture) and then washed and analyzed by flow cytometry after approximately 1 week in culture. Alternatively, cells were exposed to dmPGE2 during the pre-stimulation step (22-24 hours of culture; 23-24 hours of culture).

[3] = dmPGE2 1 uM during pre-stimulation
[4] = dmPGE2 12.5 uM during pre-stimulation
[5] = dmPGE2 25 uM during pre-stimulation
[6] = dmPGE2 50 uM during pre-stimulation
[7] = dmPGE2 100 uM during pre-stimulation

With CCCCC(C)(C)[C@H](O)/C=C/[C@H]1[C@H](O)CC(=O)[C@@H]1C/C=C\CCCC(=O)O [dmPGE2, 16,16-dimethyl PGE2] the “% Positive (GFP)” value (CD34+ cells [1]; dmPGE2 12.5 uM during transduction (24-48 hours of culture), GFP MOI 5) was 17.84%, the “% Positive (GFP)” value (CD34+ cells [1]; dmPGE2 12.5 uM during transduction (24-48 hours of culture), GFP MOI 25) was 54.71% and the “MFI (mean fluorescent intensity)” value (CD34+ cells [1]; dmPGE2 12.5 uM during transduction, GFP MOI 5) was 530,218.50. For the same compound, the “MFI (mean fluorescent intensity)” value (CD34+ cells [1]; dmPGE2 12.5 uM during transduction, GFP MOI 25) was 759,442.75, the “% Positive (GFP)” value (CD34+ cells [1]; dmPGE2 25 uM during transduction (24-48 hours of culture), GFP MOI 5) was 18.69% and the “% Positive (GFP)” value (CD34+ cells [1]; dmPGE2 25 uM during transduction (24-48 hours of culture), GFP MOI 25) was 59.99%. For the same compound, the “MFI (mean fluorescent intensity)” value (CD34+ cells [1]; dmPGE2 25 uM during transduction, GFP MOI 5) was 562,428.00, the “% Positive (GFP)” value (CD34+ cells [1]; dmPGE2 50 uM during transduction (24-48 hours of culture), GFP MOI 5) was 36.80% and the “% Positive (GFP)” value (CD34+ cells [1]; dmPGE2 50 uM during transduction (24-48 hours of culture), GFP MOI 25) was 67.62%. The “MFI (mean fluorescent intensity)” value (CD34+ cells [1]; dmPGE2 50 uM during transduction, GFP MOI 5) was 656,703.50, the “MFI (mean fluorescent intensity)” value (CD34+ cells [1]; dmPGE2 50 uM during transduction, GFP MOI 25) was 977,806.75 and the “% Positive (GFP)” value (CD34+ cells [1]; dmPGE2 100 uM during transduction (24-48 hours of culture), GFP MOI 5) was 42.97%. For the same compound, the “% Positive (GFP)” value (CD34+ cells [1]; dmPGE2 100 uM during transduction (24-48 hours of culture), GFP MOI 25) was 81.53%, the “MFI (mean fluorescent intensity)” value (CD34+ cells [1]; dmPGE2 100 uM during transduction, GFP MOI 5) was 732,716.25 and the “MFI (mean fluorescent intensity)” value (CD34+ cells [1]; dmPGE2 100 uM during transduction, GFP MOI 25) was 1,513,504.00. The “percentage of cells positive for GFP, Pre-Stim w/PGE2 Minus 2 Hr” value (“percentage … Pre-Stim w/PGE2 Minus 2 Hr” for short) (CD34+ cells [2]; [3]) was 25.74%, the “percentage of cells positive for GFP, Pre-Stim w/PGE2 Minus 1 Hr” value (from here on “percentage … Pre-Stim w/PGE2 Minus 1 Hr”) (CD34+ cells [2]; [3]) was 22.29% and the “percentage of cells positive for GFP, Virus and PGE2 Plus 1 Hr” value (from here on “percentage … Virus and PGE2 Plus 1 Hr”) (CD34+ cells [2]; dmPGE2 1 uM) was 2.94%. For the same compound, the “percentage of cells positive for GFP, Virus and PGE2 Plus 2 Hr” value (“percentage … Virus and PGE2 Plus 2 Hr” below) (CD34+ cells [2]; dmPGE2 1 uM) was 7.17%, the “percentage of cells positive for GFP, Virus and PGE2 Plus 4 Hr” value (shortened to “percentage … Virus and PGE2 Plus 4 Hr”) (CD34+ cells [2]; dmPGE2 1 uM) was 21.10% and the “percentage of cells positive for GFP, Virus and PGE2 24 Hr” value (“percentage … Virus and PGE2 24 Hr” for short) (CD34+ cells [2]; dmPGE2 1 uM) was 32.03%. The “percentage … Pre-Stim w/PGE2 Minus 2 Hr” value (CD34+ cells [2]; [4]) was 30.64%, the “percentage … Pre-Stim w/PGE2 Minus 1 Hr” value (CD34+ cells [2]; [4]) was 22.13% and the “percentage … Virus and PGE2 Plus 1 Hr” value (CD34+ cells [2]; dmPGE2 12.5 uM) was 1.97%. For the same compound, the “percentage … Virus and PGE2 Plus 2 Hr” value (CD34+ cells [2]; dmPGE2 12.5 uM) was 5.32%, the “percentage … Virus and PGE2 Plus 4 Hr” value (CD34+ cells [2]; dmPGE2 12.5 uM) was 28.08% and the “percentage … Virus and PGE2 24 Hr” value (CD34+ cells [2]; dmPGE2 12.5 uM) was 47.42%. The “percentage … Pre-Stim w/PGE2 Minus 2 Hr” value (CD34+ cells [2]; [5]) was 31.90%, the “percentage … Pre-Stim w/PGE2 Minus 1 Hr” value (CD34+ cells [2]; [5]) was 24.05% and the “percentage … Virus and PGE2 Plus 1 Hr” value (CD34+ cells [2]; dmPGE2 25 uM) was 1.76%. For the same compound, the “percentage … Virus and PGE2 Plus 2 Hr” value (CD34+ cells [2]; dmPGE2 25 uM) was 4.76%, the “percentage … Virus and PGE2 Plus 4 Hr” value (CD34+ cells [2]; dmPGE2 25 uM) was 27.46% and the “percentage … Virus and PGE2 24 Hr” value (CD34+ cells [2]; dmPGE2 25 uM) was 50.69%. For the same compound, the “percentage … Pre-Stim w/PGE2 Minus 2 Hr” value (CD34+ cells [2]; [6]) was 31.85%, the “percentage … Pre-Stim w/PGE2 Minus 1 Hr” value (CD34+ cells [2]; [6]) was 22.98% and the “percentage … Virus and PGE2 Plus 1 Hr” value (CD34+ cells [2]; dmPGE2 50 uM) was 1.85%. For the same compound, the “percentage … Virus and PGE2 Plus 2 Hr” value (CD34+ cells [2]; dmPGE2 50 uM) was 4.23%, the “percentage … Virus and PGE2 Plus 4 Hr” value (CD34+ cells [2]; dmPGE2 50 uM) was 27.45% and the “percentage … Virus and PGE2 24 Hr” value (CD34+ cells [2]; dmPGE2 50 uM) was 54.63%. The “percentage … Pre-Stim w/PGE2 Minus 2 Hr” value (CD34+ cells [2]; [7]) was 34.85%, the “percentage … Pre-Stim w/PGE2 Minus 1 Hr” value (CD34+ cells [2]; [7]) was 25.14% and the “percentage … Virus and PGE2 Plus 1 Hr” value (CD34+ cells [2]; dmPGE2 100 uM) was 2.48%. For the same compound, the “percentage … Virus and PGE2 Plus 2 Hr” value (CD34+ cells [2]; dmPGE2 100 uM) was 4.02%, the “percentage … Virus and PGE2 Plus 4 Hr” value (CD34+ cells [2]; dmPGE2 100 uM) was 21.57% and the “percentage … Virus and PGE2 24 Hr” value (CD34+ cells [2]; dmPGE2 100 uM) was 76.44%.
